Data set [1] deals with aah1Δ apt1Δ yeast model. Description: Yeast growth assay (OD600) in excess-adenine yeast model. The settings on record: low and high adenine concentrations (1 mg/L and 4 mg/L). It counts as cell-based. As to the method:
Yeast growth assays: the strains used in this work were BY4741 (WT) and the adenine salvage mutant, aah1Δ apt1Δ, that was established by a disruption of both AAH1 and APT1. The strains were grown overnight at 30° C. in synthetic defined SD medium (6.7 g/L Yeast Nitrogen Base without Amino Acids (Difco) and 20 g/L glucose (Merck)) containing a specific mixture of amino acids and nucleobases (without adenine). For OD600 measurements, strains were diluted to OD600=0.01. 200 μL of cells were platted on 96 wells microplates (Greiner, F-BOTTOM) with increasing concentrations of adenine (1, 2 and 4 mg/L) and with 2.5% (V/V) of the VLP-riboswitch nano-carries and incubated at 30° C. for 25 h with continuous shaking. OD600 was measured using Tecan™ SPARK 10M plate reader.
The aah1Δ apt1Δ mutant yeast model was grown in media without adenine or in media with 1, 2, and 4 mg/L of adenine, respectively.

Data set [2] has as its system aah1Δ apt1Δ yeast model. The settings on record: TA added to the media; cited from earlier work.
For data set [3] the following is noted: ligand adenine; cited from earlier work.

Results on 2 molecules are retold here after patent US20240376480A1, “TREATMENT OF ELEVATED METABOLITE LEVELS USING NANOCARRIERS” (RAMOT AT TEL-AVIV UNIVERSITY LTD., priority 2021, published 2024).

What is called Kd is the free concentration of one partner at which half of the binding sites on the other are occupied at equilibrium, for simple one-to-one binding.

With `O=C(OC[C@H]1O[C@@H](OC(=O)c2cc(O)c(O)c(OC(=O)c3cc(O)c(O)c(O)c3)c2)[C@H](OC(=O)c2cc(O)c(O)c(OC(=O)c3cc(O)c(O)c(O)c3)c2)[C@@H](OC(=O)c2cc(O)c(O)c(OC(=O)c3cc(O)c(O)c(O)c3)c2)[C@@H]1OC(=O)c1cc(O)c(O)c(OC(=O)c2cc(O)c(O)c(O)c2)c1)c1cc(O)c(O)c(OC(=O)c2cc(O)c(O)c(O)c2)c1` [TA, tannic acid], the “growth of the model yeast” value in the data set with aah1Δ apt1Δ yeast model [1] was “showed an improved growth”. For the same molecule, in the data set with aah1Δ apt1Δ yeast model [2], the “amyloid-like structures of the adenine inside the yeast” value was “significant decrease”.

B1: A58U riboswitch: pbuE adenine riboswitch with uracil substituted for adenine at position 58 (nucleic acid)
chain: GCGCGTTGTATAACCTCAATAATATGGTTTGAGGGTGTCTACCAGGAACCGTAAATTCCTGATTACAACGC
modifications: expressed or natural sequence
As to B1, in data set [3], the Kd is 273 ± 17 nM.
